The values that follow come from paper PMC7587356, “High-Throughput Screening for Inhibitors of the SARS-CoV-2 Protease Using a FRET-Biosensor” (Molecules, 2020).

Where a name gives a salt, the structure may show the parent alone. Read-outs that look alike come from different tables or passages of the source.

The target in the assay is SARS-CoV-2 3CLpro (Severe acute respiratory syndrome coronavirus 2, UniProt P0DTD1). The experiment in a line: biochemical. The settings on record: for inhibition at 5 µM: 4 h. In kind it is biochemical. More on the design: Replicate_1 / Replicate_2 / mean / mean (LOPAC_screen_w_protease): unit not given here.
[1] abbreviates: LOPAC1280 primary screen with protease, 5 µM compound, mean of two replicates.
Setting [2] is: LOPAC1280 primary screen with protease, 5 µM compound, replicate 1.
[3] abbreviates: LOPAC1280 primary screen with protease, 5 µM compound, replicate 2.
Where [4] appears, read: sheet LOPAC_screen_w_protease, primary screen with protease, mean of two replicates.
Where [5] appears, read: sheet LOPAC_screen_w_protease, primary screen with protease, replicate 1.
Setting [6] is: sheet LOPAC_screen_w_protease, primary screen with protease, replicate 2.
[7] abbreviates: sheet LOPAC_screen_w_protease, primary screen with protease, 5 µM, mean of two replicates.
[8] abbreviates: sheet LOPAC_screen_w_protease, primary screen with protease, 5 µM, replicate 1.
Where [9] appears, read: sheet LOPAC_screen_w_protease, primary screen with protease, 5 µM, replicate 2.
[10] abbreviates: sheet LOPAC_screen_w_protease, LOPAC1280 at 5 µM, mean of two replicates, read-out: mean.
Setting [11] is: sheet LOPAC_screen_w_protease, LOPAC1280 at 5 µM, replicate 1, read-out: Replicate_1.
Setting [12] is: sheet LOPAC_screen_w_protease, LOPAC1280 at 5 µM, replicate 2, read-out: Replicate_2.
[13] abbreviates: sheet LOPAC_screen_w_protease, LOPAC1280 primary screen at 5 µM, with protease, mean of the two replicates, read-out: mean.
[14] abbreviates: sheet LOPAC_screen_w_protease, LOPAC1280 primary screen at 5 µM, with protease, replicate 1, read-out: Replicate_1.
[15] abbreviates: sheet LOPAC_screen_w_protease, LOPAC1280 primary screen at 5 µM, with protease, replicate 2, read-out: Replicate_2.
Where [16] appears, read: sheet LOPAC_screen_w_protease, primary screen with protease, mean of two replicates, read-out: mean.
The mark [17] stands for this setting: sheet LOPAC_screen_w_protease, primary screen with protease, replicate 1, read-out: Replicate_1.
The mark [18] stands for this setting: sheet LOPAC_screen_w_protease, primary screen with protease, replicate 2, read-out: Replicate_2.
Where [19] appears, read: sheet LOPAC_screen_w_protease, primary screen with protease, compound at 5 µM, mean of two replicates, read-out: mean.
[20] abbreviates: sheet LOPAC_screen_w_protease, primary screen with protease, compound at 5 µM, replicate 1, read-out: Replicate_1.
Setting [21] is: sheet LOPAC_screen_w_protease, primary screen with protease, compound at 5 µM, replicate 2, read-out: Replicate_2.
Where [22] appears, read: sheet LOPAC_screen_w_protease, primary screen with protease, compound at 5 µM, mean of two replicates.
[23] abbreviates: sheet LOPAC_screen_w_protease, primary screen with protease, compound at 5 µM, replicate 1.
[24] abbreviates: sheet LOPAC_screen_w_protease, primary screen with protease, compound at 5 µM, replicate 2.

In the case of `Cl.NNC(N)=O` [Semicarbazide hydrochloride], the “mean (LOPAC_screen_w_protease)” value under setting [1] is 1.574. Also, the “Replicate_1 (LOPAC_screen_w_protease)” value under setting [2] is 1.447. Also, the “Replicate_2 (LOPAC_screen_w_protease)” value under setting [3] turned out to be 1.701.

As to `CCCC(C)(COC(N)=O)COC(=O)NC(C)C` (stereo not drawn) [Carisoprodol], the inhibition at 5 µM by setting is: (read-out: Replicate_1) -0.28%; (read-out: Replicate_2) 2.2%; (read-out: mean) 0.96%.

Regarding `CSc1ccc(C(=O)c2[nH]c(=O)[nH]c2C)cc1` [Enoximone], the inhibition at 5 µM by setting is: (read-out: Replicate_1 (LOPAC screen with protease)) 7.98%; (read-out: Replicate_2 (LOPAC screen with protease)) 10%; (read-out: mean (LOPAC screen with protease)) 9.01%.

On to `CNC(=O)[C@H]1O[C@@H](n2cnc3c(NCc4cccc(I)c4)nc(Cl)nc32)[C@H](O)[C@@H]1O` [Chloro-IB-MECA], for which the inhibition at 5 µM by setting is: (sheet LOPAC_screen_w_protease, primary screen of LOPAC1280 at 5 µM with protease, mean of the two replicates, read-out: mean) 3.22%; (sheet LOPAC_screen_w_protease, primary screen of LOPAC1280 at 5 µM with protease, replicate 1, read-out: Replicate_1) 4.25%; (sheet LOPAC_screen_w_protease, primary screen of LOPAC1280 at 5 µM with protease, replicate 2, read-out: Replicate_2) 2.19%.

Take `COc1ccc(Cc2nccc3cc(OC)c(OC)cc23)cc1OC` [Papaverine hydrochloride]: the inhibition at 5 µM runs as follows: (sheet LOPAC_screen_w_protease, LOPAC1280 primary screen with protease, 5 µM compound, mean of the two replicates, read-out: mean) 5.63%; (sheet LOPAC_screen_w_protease, LOPAC1280 primary screen with protease, 5 µM compound, replicate 1, read-out: Replicate_1) 5.9%; (sheet LOPAC_screen_w_protease, LOPAC1280 primary screen with protease, 5 µM compound, replicate 2, read-out: Replicate_2) 5.37%.

Consider `Cl.Nc1ccn([C@@H]2O[C@H](CO)[C@@H](O)[C@@H]2O)c(=O)n1`, for which, under setting [4], the mean stood at 2.239. Under setting [5], this compound returned a Replicate_1 of 1.947. For the same compound, the Replicate_2 under setting [6] came to 2.5319.

Turning to `CCCN(CCC)C1Cc2cc(OC)c(OC)cc2C1.O=C(O)/C=C\C(=O)O` [U-99194A maleate], the mean under setting [7] is recorded as -0.07283. Further, the Replicate_1 under setting [8] is -1.037. This compound had a Replicate_2 under setting [9] of 0.891.

As to `CCN(c1nc(N)c(C(=O)NC(=N)N)nc1Cl)C(C)C` [5-(N-Ethyl-N-isopropyl)amiloride], the inhibition at 5 µM reads like this: under setting [10], 1.01%; under setting [11], 1.63%; under setting [12], 0.388%.

Regarding `CC(C)[N+]1(C)[C@@H]2CC[C@H]1C[C@@H](OC(=O)C(CO)c1ccccc1)C2` (stereo partly drawn) [Ipratropium bromide], the inhibition at 5 µM (LOPAC1280 primary screen with protease, 5 µM compound, replicate 1, read-out: Replicate_1 (LOPAC_screen_w_protease)) was 1.02% and the inhibition at 5 µM (LOPAC1280 primary screen with protease, 5 µM compound, replicate 2, read-out: Replicate_2 (LOPAC_screen_w_protease)) stood at 1.99%. In addition, under setting [1], the “mean (LOPAC_screen_w_protease)” value worked out at 1.504.

On to `NS(=O)(=O)c1cc2c(cc1Cl)N=CNS2(=O)=O` [Chlorothiazide], for which the inhibition at 5 µM runs as follows: under setting [10], 0.892%; under setting [11], 1.61%; under setting [12], 0.17%.

Consider `NC(=O)c1ccccc1` [Benzamide], for which the inhibition at 5 µM stood at 0.755% under setting [13], 1.21% under setting [14] and 0.297% under setting [15].

The compound `COc1cc(CC(C)N)c(OC)cc1I.Cl` (racemic) [(±)-DOI hydrochloride] registered a Replicate_1 of 4.323, a Replicate_2 of 2.796 and a mean of 3.56.

As to `Cn1c(=O)c2[nH]c(C3CCCC3)nc2n(C)c1=O` [8-Cyclopentyl-1,3-dimethylxanthine], the mean under setting [7] is recorded as 0.2262. In addition, under setting [8], the Replicate_1 turned out to be 2.489. The Replicate_2 under setting [9] was -2.037.

Take `CC(C)(Oc1ccc(C2CC2(Cl)Cl)cc1)C(=O)O` (stereo not drawn) [Ciprofibrate]: the inhibition at 5 µM reads like this: under setting [16], 2.4%; under setting [17], 2.2%; under setting [18], 2.6%.

As to `CCC(C)N(C)C(=O)c1cc2ccccc2c(-c2ccccc2Cl)n1` (stereo not drawn) [PK 11195], the inhibition at 5 µM came to 3.14% under setting [19], 1.87% under setting [20] and 4.41% under setting [21].

In turn, `C[N+](C)(C)CCOC(=O)CBr.[Br-]` [Bromoacetylcholine bromide] displayed a mean under setting [4] of 2.401. Further, the Replicate_1 under setting [5] worked out at 0.6425. Also, the Replicate_2 under setting [6] worked out at 4.16.

Regarding `Nc1ncnc2c1ncn2[C@@H]1O[C@H](CO)[C@@H](O)[C@H]1O` [Adenosine], the inhibition at 5 µM was 1.26% (read-out: Replicate_1), 3.55% (read-out: Replicate_2) and 2.4% (read-out: mean).

With `C=CCn1c(=O)c2c(nc(-c3ccc(S(=O)(=O)O)cc3)n2C)n(C)c1=O`, under setting [1], the “mean (LOPAC_screen_w_protease)” value came to 1.718. The “Replicate_1 (LOPAC_screen_w_protease)” value under setting [2] is given as 2.434. Moreover, the “Replicate_2 (LOPAC_screen_w_protease)” value under setting [3] was 1.002.

On to `CC1=C(C)C(=O)C(CCCCC#CCCCC#CCO)=C(C)C1=O` [AA-861], for which the inhibition at 5 µM worked out at 2.27% under setting [16], 3.11% under setting [17] and 1.43% under setting [18].

`NC(=O)c1cnccn1` [Pyrazinecarboxamide]: for the setting “sheet LOPAC_screen_w_protease, LOPAC1280 at 5 µM, mean of two replicates”, the mean is 0.9233. This compound had a Replicate_1 (sheet LOPAC_screen_w_protease, LOPAC1280 at 5 µM, replicate 1) of 1.572. The same compound had a Replicate_2 (sheet LOPAC_screen_w_protease, LOPAC1280 at 5 µM, replicate 2) of 0.2741.

Regarding `N[C@H](CCCCCP(=O)(O)O)C(=O)O` [D(-)-2-Amino-7-phosphonoheptanoic acid], the mean under setting [22] came to 3.051. Under setting [23], this compound had a Replicate_1 of 3.469. Also, the Replicate_2 under setting [24] is 2.633.

`N[C@H](C(=O)O)c1cc(O)cc(O)c1` [(S)-3,5-Dihydroxyphenylglycine] had a mean (sheet LOPAC_screen_w_protease, primary screen of LOPAC1280 at 5 µM with protease, mean of the two replicates) of 3.456. For the same compound, the Replicate_1 (sheet LOPAC_screen_w_protease, primary screen of LOPAC1280 at 5 µM with protease, replicate 1) is reported as 2.928. This compound yielded a Replicate_2 (sheet LOPAC_screen_w_protease, primary screen of LOPAC1280 at 5 µM with protease, replicate 2) of 3.983.

Consider `O=C(O)[C@H]1CCCN[C@H]1C(=O)O` (racemic) [(±)-cis-Piperidine-2,3-dicarboxylic acid], for which, under setting [1], the “mean (LOPAC_screen_w_protease)” value came to 1.527. Moreover, the “Replicate_1 (LOPAC_screen_w_protease)” value under setting [2] stood at 0.9979. Further, the “Replicate_2 (LOPAC_screen_w_protease)” value under setting [3] is listed as 2.056.

Take `O=c1[nH]c2cc(Cl)c(Cl)cc2[nH]c1=O` [6,7-Dichloroquinoxaline-2,3-dione]: the mean (sheet LOPAC_screen_w_protease, LOPAC1280 primary screen with protease, 5 µM compound, mean of the two replicates) came to 4.331. Besides, the Replicate_1 (sheet LOPAC_screen_w_protease, LOPAC1280 primary screen with protease, 5 µM compound, replicate 1) was determined as 5.455. This compound also yielded a Replicate_2 (sheet LOPAC_screen_w_protease, LOPAC1280 primary screen with protease, 5 µM compound, replicate 2) of 3.207.

Under setting [22], `Cn1c(=O)c2[nH]c(-c3ccc(S(=O)(=O)O)cc3)nc2n(C)c1=O` [8-(p-Sulfophenyl)theophylline] showed a mean of 3.141. The Replicate_1 under setting [23] was 2.844. This compound returned a Replicate_2 under setting [24] of 3.439.

For `CN1CCc2cccc(Cl)c2CC1` [SKF 86466], the inhibition at 5 µM under setting [13] was 0.452%, the inhibition at 5 µM under setting [14] is 0.136% and the inhibition at 5 µM under setting [15] was 0.768%.

Turning to `Oc1ccc(-c2nc(-c3ccncc3)c(-c3ccc(F)cc3)[nH]2)cc1` [SB 202190], the inhibition at 5 µM under setting [16] came to 2.45%, the inhibition at 5 µM under setting [17] was 1.31% and the inhibition at 5 µM under setting [18] amounted to 3.6%.

Consider `CC1=C(C(=O)O)N2C(=O)[C@@H](NC(=O)[C@H](N)C3=CCC=CC3)[C@H]2SC1` [Cephradine], for which the inhibition at 5 µM worked out at 3.13% under setting [19], 2.84% under setting [20] and 3.42% under setting [21].

With `CN1[C@@H]2CC[C@H]1C[C@@H](OC(c1ccccc1)c1ccccc1)C2` [Benztropine mesylate], the inhibition at 5 µM stood at 3.08% under setting [19], 0.913% under setting [20] and 5.26% under setting [21].

In the case of `NC(CCCP(=O)(O)O)C(=O)O` (racemic) [(±)-2-Amino-5-phosphonopentanoic acid], the “mean (LOPAC_screen_w_protease)” value under setting [1] was found to be 1.558. The “Replicate_1 (LOPAC_screen_w_protease)” value under setting [2] amounted to 1.59. Also, the “Replicate_2 (LOPAC_screen_w_protease)” value under setting [3] stood at 1.526.

On to `Cc1cn(C2CC(N=[N+]=[N-])C(CO)O2)c(=O)[nH]c1=O` (stereo not drawn) [3'-Azido-3'-deoxythymidine], for which the inhibition at 5 µM under setting [10] is 1.04%, the inhibition at 5 µM under setting [11] was determined as 1.75% and the inhibition at 5 µM under setting [12] amounted to 0.327%.
